The values below are quoted from earlier work in article PMC8339258 (Frontiers in Pharmacology, 2021).

`CC#CCn1c(N2CCC[C@@H](N)C2)nc2c1c(=O)n(Cc1nc(C)c3ccccc3n1)c(=O)n2C` [linagliptin, (R)-8-(3-Amino-piperidin-1-yl)-7-but-2-ynyl-3-methyl-1-(4-methyl-quinazolin-2-ylmethyl)-3,7-dihydro-purine-2,6-dione]: the t1/2 (comparison in discussion, ref not given) is above 100 h. In addition, for the setting “ref Hüttner et al., 2008, Heise et al., 2009, Blech al., 2010, Sarashina et al.”, the terminal half-life was 142 h.
